Literature values in article PMC4291083, “Ex Vivo Characterization of a Novel Iodine-123-Labelled Aminomethylchroman as a Potential Agonist Ligand for SPECT Imaging of Dopamine D2/3 Receptors” (International Journal of Molecular Imaging, 2014).

Columns and labels:
Set-up in all cases: method as in PMID 24325578
D2 receptor = conditions: agonism D2 receptor, cited from earlier work
dopamine D4 receptor = conditions: in vitro; cited from earlier work
D2 low = conditions: in vitro; cited from earlier work
D1 receptor = conditions: in vitro; cited from earlier work
D2 high = conditions: in vitro; cited from earlier work

(R) N-[7-hydroxychroman-2-yl]-methyl 4-iodobenzyl amine [compound 1]
Emax (D2 receptor; cAMP): 86 % of dopamine
pEC50 cAMP (D2 receptor): 9.2 ± 0.4
binding affinity to dopamine D4 receptor (dopamine D4 receptor): binds with high-affinity
Ki (D2 low): 0.0518 µM
Ki (D1 receptor): 8.67 µM
Ki (D2 high): 0.00379 µM
